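Grown in 96-well plates, cells were treated for 48 hours with each compound at five concentrations. Insufficient inhibition: endpoint recorded as highest concentration tested. GI50 = concentration required for 50% inhibition of growth. TGI marks complete inhibition of growth.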

Test systems include MDA-MB-435; HCT-15 colon; RXF 393 renal; UACC-257 melanoma; MDA-MB-231 breast; HCT-116 colon; NCI-H522 lung; SNB-75 CNS.
Experiment in all cases: NCI-60 cell line screen, 48 h

Regarding `CCOC(=O)CCC(NC(=O)c1ccc(Oc2nc3cc(N)cc(N)c3nc2-c2ccccc2)cc1)C(=O)OCC` (configuration not stated), the GI50 with MDA-MB-435 was 30.2 µM; in the experiment with HCT-15 colon, 34.3 µM; in the experiment with RXF 393 renal, 43.9 µM; in the experiment on UACC-257 melanoma it was 26.7 µM; in the experiment with MDA-MB-231 breast, 11.3 µM; in the experiment on HCT-116 colon, 15.1 µM. Besides, the GI50 in the experiment with NCI-H522 lung was 27.5 µM. Further, the TGI was more than 100 µM with MDA-MB-435; more than 100 µM with HCT-15 colon; more than 100 µM in the experiment with RXF 393 renal; 55.1 µM in the experiment with UACC-257 melanoma; 32.6 µM in the experiment with MDA-MB-231 breast; 28.7 µM in the experiment with HCT-116 colon. Moreover, the TGI with NCI-H522 lung is more than 100 µM.

In the case of `CC(=O)OC1CCC2(C)C(=CCC3C2CCC2(C)C3CC3OC4(CCC(C)CN4)C(C)C32)C1` (configuration not stated), the TGI with MDA-MB-435, in the experiment on HCT-15 colon, with RXF 393 renal, in the experiment with UACC-257 melanoma, in the experiment with MDA-MB-231 breast and with HCT-116 colon was more than 100 µM throughout. Moreover, the TGI in the experiment with SNB-75 CNS and with NCI-H522 lung was more than 100 µM in each case.

Take `Cc1nc2ccccc2c(/C=C/c2ccc(C(F)(F)F)cc2)c1C(=O)/C=C/c1ccccc1`: the GI50 was 1.1 µM with HCT-15 colon; 1.46 µM in the experiment with RXF 393 renal; 1.61 µM in the experiment on UACC-257 melanoma; 1.74 µM with MDA-MB-231 breast; 0.521 µM in the experiment with HCT-116 colon; 1.38 µM in the experiment on SNB-75 CNS. Moreover, the GI50 in the experiment on NCI-H522 lung was 1.33 µM. Moreover, the TGI in the experiment with HCT-15 colon was determined as 3.16 µM; in the experiment on RXF 393 renal it was 2.81 µM; in the experiment with UACC-257 melanoma, 3.17 µM; in the experiment with MDA-MB-231 breast it was 3.65 µM; in the experiment on HCT-116 colon, 2.03 µM; with SNB-75 CNS it was 2.81 µM. Further, the TGI in the experiment with NCI-H522 lung is 3.07 µM.

Take `O=C1CC[C@@H]2[C@H]3CCC(=O)c4c3c(c3cccc(O)c3c4O)O[C@@]23C(=O)c2cccc(O)c2C(O)=C13`: the GI50 in the experiment on HCT-15 colon, with RXF 393 renal, in the experiment on UACC-257 melanoma, in the experiment with MDA-MB-231 breast, in the experiment on HCT-116 colon and with SNB-75 CNS was more than 100 µM throughout. Moreover, the GI50 with NCI-H522 lung was more than 100 µM. The TGI in the experiment with HCT-15 colon, with RXF 393 renal, in the experiment with UACC-257 melanoma, in the experiment on MDA-MB-231 breast, in the experiment with HCT-116 colon and in the experiment with SNB-75 CNS was more than 100 µM each time. In the experiment with NCI-H522 lung, this molecule gave a TGI of more than 100 µM.

For the molecule `NC(=O)c1c(NC(=O)c2ccc(C(F)(F)F)cc2Cl)sc2c1CCC(=O)C2`, the GI50 with MDA-MB-435 was 0.393 µM; with RXF 393 renal, 0.259 µM; with UACC-257 melanoma it was 0.654 µM; with HCT-116 colon, 0.302 µM; with NCI-H522 lung, 0.186 µM. The TGI with MDA-MB-435 stood at 1.79 µM; with RXF 393 renal, 0.881 µM; in the experiment with UACC-257 melanoma, 3.46 µM; with HCT-116 colon, 1.42 µM; with NCI-H522 lung, 0.844 µM.

For `CN(COC(=O)C(C)(C)C)c1nc(N(C)COC(=O)C(C)(C)C)nc(N(C)COC(=O)C(C)(C)C)n1`, the TGI was 43.9 µM in the experiment on HCT-15 colon; 41.9 µM in the experiment with RXF 393 renal; more than 100 µM with UACC-257 melanoma; 68.9 µM in the experiment with MDA-MB-231 breast; 39.3 µM in the experiment with HCT-116 colon; more than 100 µM with SNB-75 CNS. Also, the TGI with NCI-H522 lung was more than 100 µM.

As for `C[C@H]1CCC/C=C/[C@@H]2C[C@H](O)C[C@H]2[C@H](O)C(O)C(O)C(=O)O1` (some centres not stated), the GI50 was 3.74 µM in the experiment on MDA-MB-435; 2.52 µM in the experiment with RXF 393 renal; 1.1 µM in the experiment on UACC-257 melanoma; 2.5 µM in the experiment with MDA-MB-231 breast; 3.38 µM with HCT-116 colon; 0.578 µM in the experiment on SNB-75 CNS. The GI50 with NCI-H522 lung was 2.26 µM. Also, the TGI in the experiment with MDA-MB-435 was more than 100 µM; in the experiment with RXF 393 renal it was more than 24.6 µM; in the experiment on UACC-257 melanoma it was more than 100 µM; in the experiment on MDA-MB-231 breast, 4.84 µM; in the experiment on HCT-116 colon, 19 µM; in the experiment on NCI-H522 lung, 4.52 µM.

For `COc1ccc(/C(=N/O)c2cc(F)c(F)c(OC)c2F)cc1O`, the GI50 in the experiment on HCT-15 colon is 0.42 µM; with MDA-MB-231 breast, 2.46 µM; with HCT-116 colon, 0.393 µM; in the experiment on SNB-75 CNS, 0.309 µM; in the experiment with NCI-H522 lung, 0.259 µM. Also, the TGI in the experiment on HCT-15 colon is more than 100 µM; with MDA-MB-231 breast it was more than 100 µM; in the experiment on HCT-116 colon, more than 100 µM; with SNB-75 CNS, more than 100 µM; in the experiment on NCI-H522 lung, 3.3 µM.

Turning to `Cc1ncc2c(n1)CCC1=C2OS(=O)(=O)CC1N(C)C` (configuration not stated), the TGI in the experiment on MDA-MB-435, with UACC-257 melanoma, in the experiment on MDA-MB-231 breast, with HCT-116 colon, in the experiment with SNB-75 CNS and in the experiment with NCI-H522 lung was more than 100 µM each time.

As for `O=C1c2ccccc2-n2c1nc1ccc([N+](=O)[O-])cc1c2=O`, the TGI in the experiment with HCT-15 colon, in the experiment on RXF 393 renal, with UACC-257 melanoma, with MDA-MB-231 breast, with HCT-116 colon and in the experiment with NCI-H522 lung was more than 100 µM in each case.

Regarding `O=C(O)CC(CC(=O)O)n1cccc1`, the TGI in the experiment on MDA-MB-435, with HCT-15 colon, with RXF 393 renal, in the experiment on UACC-257 melanoma, in the experiment with MDA-MB-231 breast and with HCT-116 colon was more than 100 µM throughout. In the experiment with NCI-H522 lung, this molecule showed a TGI of more than 100 µM.

On to `O=C(NCCc1nccs1)c1cnc2c(S)cccc2c1`, for which the GI50 in the experiment with MDA-MB-435 was 3.85 µM; in the experiment with HCT-15 colon, 3.49 µM; in the experiment with RXF 393 renal, 3.07 µM; with UACC-257 melanoma, 3.77 µM; in the experiment on MDA-MB-231 breast, 3.33 µM; with HCT-116 colon, 1.13 µM. The GI50 in the experiment on SNB-75 CNS was 2.78 µM. For the same molecule, the TGI with MDA-MB-435 was found to be 53.5 µM; with HCT-15 colon it was 88.6 µM; with RXF 393 renal it was 9.29 µM; with UACC-257 melanoma it was 15.3 µM; with MDA-MB-231 breast, 56.4 µM; with HCT-116 colon it was 10.2 µM. The molecule further came in with a TGI with SNB-75 CNS of 17.6 µM.

Take `Cc1nc2sc(C(=O)Nc3cccc4c3OCCO4)c(N)c2cc1C(C)O` (configuration not stated): the GI50 in the experiment with MDA-MB-435 was 0.454 µM; in the experiment with HCT-15 colon, 3.26 µM; in the experiment with RXF 393 renal, 2.92 µM; with MDA-MB-231 breast, 36.3 µM; in the experiment with HCT-116 colon, 5.57 µM; in the experiment on SNB-75 CNS, 1.81 µM. The GI50 in the experiment with NCI-H522 lung is 2.5 µM. The TGI with MDA-MB-435 was 3.54 µM; with HCT-15 colon, more than 100 µM; with RXF 393 renal it was more than 100 µM; with MDA-MB-231 breast it was more than 100 µM; in the experiment on HCT-116 colon, more than 100 µM; in the experiment on SNB-75 CNS, more than 100 µM. For the same molecule, the TGI with NCI-H522 lung was more than 100 µM.

The values above are taken from PubChem BioAssay (NCI).
